Results taken from PMC11784183, “Identification of an antibiotic from an HTS targeting EF-Tu:tRNA interaction: a prospective topical treatment for MRSA skin infections” (Applied and Environmental Microbiology, 2024).
Values after ≈ are worked out from the molar mass of the structure shown. Where two headings read alike, the source gives them in different places.

Columns and labels:
S. aureus = test: Drug susceptibility assay (96-well, MIC); format: cell-based; conditions: Staphylococcus aureus
[1] = format: in vitro ADME, rat
Method: (§1) Briefly, each reaction mixture (110 µL) consisted of a test article (1 µM), mix gender human, male Sprague Dawley rat or male CD-1 mouse microsomal fractions (0.5 mg/mL), and NADPH regenerating system in phosphate buffer at pH 7.4. Samples were incubated in 384-well plates at 37°C for 0, 5, 10, 15, 30, and 60 min. Sample analysis and half-life calculations were performed using a previously described method ([22]). The three controls used were Buspirone (short half-life), Loperamide (moderate half-life), and Antipyrine (long half-life).
(§2) Categories were defined as follows: unstable, t1/2 < 30 min; stable, t1/2 > 30 min.

[2] = test system: M. tuberculosis H37Rv (ATTC 27294); test: Drug susceptibility assay (96-well, MIC); format: cell-based; conditions: Mycobacterium tuberculosis, Acid-fast
S. lugdunensis = test: MIC testing by broth microdilution; format: cell-based
[3] = test system: S. aureus USA300 subcutaneous infection; test: Mouse skin infection model, topical ointment; format: in vivo, mice; conditions: topical ointment daily
S. xylosus = test: MIC testing by broth microdilution; format: cell-based; conditions: Staphylococcus xylosus; BK strain 26203
S. warneri = test: MIC testing by broth microdilution; format: cell-based
S. aureus USA300 = conditions: 15 µM, 0-4 h
Method: S. aureus USA300 was inoculated 1:100 into LB medium from overnight cultures. Cells were grown to the early exponential phase and back diluted to OD600 0.1. […] Samples were serially diluted and plated on LB agar. Colonies were enumerated after overnight incubation at 37°C. Time-kill experiments were performed with n = 4 biological replicates.

S. pseudintermedius = test: MIC testing by broth microdilution; format: cell-based
[4] = format: in vitro ADME, human
Method: as §1, §2

S. capitis = test: MIC testing by broth microdilution; format: cell-based; conditions: Staphylococcus capitis
[5] = male, C57B6, mouse, in vivo, ip, 10 mg/kg, 7 h
S. cohnii = test: MIC testing by broth microdilution; format: cell-based; conditions: Staphylococcus cohnii; BK strain 22939
B. subtilis = test: Inhibition of bacterial growth in liquid culture; format: cell-based; conditions: Bacillus subtilis
Method: (§3) Strains and reagents were the same as in the zone-inhibition assay (above). […] The culture was diluted again 1/500 in 1 mL of fresh media with the presence of increasing concentrations of tested compound or 1% DMSO as a control.

in vivo = conditions: male, C57B6, mouse, ip, 10 mg/kg
E. coli = test: Inhibition of bacterial growth; format: cell-based; conditions: not shown
Method: as §3

S. gallinarum = test: MIC testing by broth microdilution; format: cell-based; conditions: BK strain 26189
ERβ receptor = test system: ERβ receptor; set-up: method as in PMID 9927308; conditions: cited from earlier work
S. simulans = test: MIC testing by broth microdilution; format: cell-based; conditions: Staphylococcus simulans; BK strain 26201
[6] = test system: ribosomal translation in vitro (PURExpress); test: Purified in vitro translation assay (PURExpress); format: biochemical; conditions: highest concentration tested
Description: (A) Coomassie blue staining of sodium dodecyl sulfate polyacrylamide gel electrophoresis (SDS-PAGE) following in vitro translation with the PURExpress translation kit (New England Biolabs). The protein synthesized (Dihydrofolate reductase) in the reaction is shown in the small rectangles superimposed on the gel. (B) Quantification using a BioRad gel scanner and software provided with this scanner.
PURExpress in vitro purified ribosomal translation kit (New England Biolabs) was used. Biochemical protocols used were as described by the manufacturer.

Staphylococcus aureus = test: MIC testing by broth microdilution; format: cell-based
S. caprae = test: MIC testing by broth microdilution; format: cell-based; conditions: BK strain 22945
[7] = test system: non-aureus staphylococcal strains (14 species); test: MIC testing by broth microdilution, panel of non-aureus staphylococcal strains; format: cell-based, Staphylococcus spp.; conditions: Staphylococcus; for 18 of 23 other Staphylococcal strains; read-out: MIC90 and MIC50
S. sciuri = test: MIC testing by broth microdilution; format: cell-based
[8] = test system: A. baumannii (ATCC 17988); test: Drug susceptibility assay (96-well, MIC); format: cell-based; conditions: Acinetobacter baumannii, ATCC17988; Gram-negative
S. haemolyticus = test: MIC testing by broth microdilution; format: cell-based; conditions: Staphylococcus haemolyticus; BK strain 21148
S. saprophyticus = test: MIC testing by broth microdilution; format: cell-based
S. lentus = test: MIC testing by broth microdilution; format: cell-based
[9] = test system: P. aeruginosa (ATCC BAA47); test: Drug susceptibility assay (96-well, MIC); format: cell-based; conditions: Pseudomonas aeruginosa, ATCCBAA47; Gram-negative
[10] = mouse, in vivo, ip, 10 mg/kg
S. epidermidis = test: MIC testing by broth microdilution; format: cell-based
[11] = test system: K. pneumoniae (ATCC 43816); test: Drug susceptibility assay (96-well, MIC); format: cell-based; conditions: Klebsiella pneumoniae, ATCC43816; Gram-negative

Method for Vero cells (ATCC CCL-81): Compounds were tested for cytotoxicity against Vero cells using the CellTiter 96 AQueous One Solution Assay kit (Promega). Vero cells were seeded in 96-well plates at a density of 2 × 10^4 cells per well, and the plates were incubated for 4 h at 37°C to allow attachments of the Vero cells. Chemical compounds being tested were then added to the wells starting from a final concentration of 50 µg/mL and making 12 1:2 dilutions. Cells were incubated for 72 h at 37°C, after which 20 µL of freshly prepared MTS:PMS reagents were added to each well. Plates were incubated for 2 h and then read at an absorbance of 490 nm.

CC[C@@H]1Cc2cc(O)ccc2C2=C1c1ccc(O)cc1C[C@H]2CC [MGC-10]
MIC (S. aureus; ATCC25923): 6.25 µM (≈ 2 µg/mL) | MIC (S. aureus; ATCC35556): 6.25 µM (≈ 2 µg/mL) | MIC (S. aureus; ATCC 43300 / MRSA, S. aureus mecA + (MRSA) (ATCC 43300), Gram-positive, read-out: MIC): 6.25 µM | depletion of the compound in liver microsomes [1]: no depletion | cytotoxicity against Vero mammalian cells (Vero cells (ATCC CCL-81)): no cytotoxicity | MIC (cytotoxicity, Vero) (Vero cells (ATCC CCL-81); African green monkey, 72 h): 50 µM (≈ 16 µg/mL) | MIC [2]: 100 µM (≈ 32 µg/mL) | MIC (S. lugdunensis; BK strain 28088, Methicillin R): 6 µM (≈ 1.92 µg/mL) | MIC (S. lugdunensis; Staphylococcus lugdunensis, BK strain 26192): 6 µM (≈ 1.92 µg/mL) | dermonecrosis as a result of S. aureus infection (area over time) ([3]; 5 days, vs untreated control (ointment without drug)): able to reduce dermonecrosis | bacterial burden in punch biopsies ([3]; day 5, vs untreated control): not statistically significant (P = 0.0575) | MIC (S. xylosus): 6 µM (≈ 1.92 µg/mL) | MIC (S. warneri; BK strain 26202): 6 µM (≈ 1.92 µg/mL) | MIC (S. warneri; Staphylococcus warneri, BK strain 24473): 6 µM (≈ 1.92 µg/mL) | bactericidal test (CFU/mL over time) (S. aureus USA300): notable bactericidal activity | MIC (S. pseudintermedius; BK strain 24474): 6 µM (≈ 1.92 µg/mL) | MIC (S. pseudintermedius; BK strain 25938): 6 µM (≈ 1.92 µg/mL) | MIC (S. pseudintermedius; BK strain 26190): 12 µM (≈ 3.85 µg/mL) | depletion of the compound in liver microsomes [4]: no depletion | MIC (S. capitis; BK strain 22034): 12 µM (≈ 3.85 µg/mL) | MIC (S. capitis; BK strain 24463): 6 µM (≈ 1.92 µg/mL) | Clast [5]: 532 ng/mL | MIC (S. cohnii): 12 µM (≈ 3.85 µg/mL) | inhibition at 6 µM (B. subtilis): 97% | AUC(0-inf) (in vivo): 171 µg·h/mL | half-life (in vivo): 2.1 h | concentration at 7 h (in vivo; Clast): 733 ng/mL | inhibition of growth of E. coli (E. coli): No inhibition | MIC (S. gallinarum): 12 µM (≈ 3.85 µg/mL) | activity at ERβ receptor (ERβ receptor): antagonist | MIC (S. simulans): 6 µM (≈ 1.92 µg/mL) | complete inhibition of translation [6]: complete inhibition was not achieved | MIC (Staphylococcus aureus; MRSA / USA300, BK strain 19494, CC 8, USA300, MRSA): 6 µM (≈ 1.92 µg/mL) | MIC (Staphylococcus aureus; MRSA / USA300 / USA500, MRSA clinical isolates typed as USA300 and USA500): 6 µM (≈ 1.92 µg/mL) | MIC (Staphylococcus aureus; MRSA / USA400, BK strain 19484, CC 1, USA400, MRSA): 6 µM (≈ 1.92 µg/mL) | MIC (Staphylococcus aureus; MRSA / USA600, BK strain 18519, CC 45, USA600, MRSA): 6 µM (≈ 1.92 µg/mL) | MIC (Staphylococcus aureus; MRSA / USA800, BK strain 18267, CC 5, USA800, MRSA): 6 µM (≈ 1.92 µg/mL) | MIC (Staphylococcus aureus; MRSA, BK strain 13180, CC 8, Trimethoprim-sulfamethoxazole resistant): 6 µM (≈ 1.92 µg/mL) | MIC (Staphylococcus aureus; MRSA, BK strain 21209, CC 8, Linezolid resistant): 6 µM (≈ 1.92 µg/mL) | MIC (Staphylococcus aureus; MRSA, BK strain 21346, CC 5, Tigecycline resistant): 6 µM (≈ 1.92 µg/mL) | MIC (Staphylococcus aureus; MRSA, BK strain 21347, CC 22, Linezolid resistant): 6 µM (≈ 1.92 µg/mL) | MIC (Staphylococcus aureus; MRSA, BK strain 22522, CC 5, Vancomycin resistant (vanA+), MRSA): 6 µM (≈ 1.92 µg/mL) | MIC (Staphylococcus aureus; MRSA, BK strain 22523, CC 5, Vancomycin resistant (vanA+), MRSA): 6 µM (≈ 1.92 µg/mL) | MIC (Staphylococcus aureus; MRSA, BK strain 23735, CC 125, BORSA): 6 µM (≈ 1.92 µg/mL) | MIC (Staphylococcus aureus; MRSA, BK strain 23736, CC 1, BORSA): 6 µM (≈ 1.92 µg/mL) | MIC (Staphylococcus aureus; MRSA, BK strain 26638, CC 398, LA-MRSA): 6 µM (≈ 1.92 µg/mL) | MIC (Staphylococcus aureus; MRSA, BK strain 46376, CC 8, hVISA): 6 µM (≈ 1.92 µg/mL) | MIC (Staphylococcus aureus; MRSA, BK strain 46377, CC 8, hVISA): 6 µM (≈ 1.92 µg/mL) | MIC (Staphylococcus aureus; MRSA, BK strain 58711, CC 5, Rifampin resistant): 6 µM (≈ 1.92 µg/mL) | MIC (Staphylococcus aureus; MRSA, BK strain 59775, CC 8, Trimethoprim-sulfamethoxazole resistant): 6 µM (≈ 1.92 µg/mL) | MIC (Staphylococcus aureus; MRSA, BK strain 61828, CC 398, MRSA): 6 µM (≈ 1.92 µg/mL) | MIC (Staphylococcus aureus; MRSA, BK strain 62861, CC 45, MRSA): 6 µM (≈ 1.92 µg/mL) | MIC (Staphylococcus aureus; MRSA, BK strain 62874, CC 59, MRSA): 6 µM (≈ 1.92 µg/mL) | MIC (Staphylococcus aureus; MRSA, BK strain 62961, CC 5, MRSA): 6 µM (≈ 1.92 µg/mL) | MIC (Staphylococcus aureus; MRSA, BK strain 62969, CC 5, MRSA): 6 µM (≈ 1.92 µg/mL) | MIC (Staphylococcus aureus; MRSA, BK strain 62976, CC 398, MRSA): 6 µM (≈ 1.92 µg/mL) | MIC (Staphylococcus aureus; MRSA, BK strain 63193, CC 30, MRSA): 6 µM (≈ 1.92 µg/mL) | MIC (Staphylococcus aureus; MRSA, BK strain 63218, CC 8, MRSA): 6 µM (≈ 1.92 µg/mL) | MIC (Staphylococcus aureus; MRSA, BK strain 63341, CC 8, MRSA): 6 µM (≈ 1.92 µg/mL) | MIC (Staphylococcus aureus; MRSA, BK strain 63738, CC 59, MRSA): 6 µM (≈ 1.92 µg/mL) | MIC (Staphylococcus aureus; MRSA, BK strain 63765, CC 30, MRSA): 12 µM (≈ 3.85 µg/mL) | MIC (Staphylococcus aureus; MRSA, BK strain 63776, CC 398, MRSA): 6 µM (≈ 1.92 µg/mL) | MIC (Staphylococcus aureus; MRSA, BK strain 63777, CC 45, MRSA): 6 µM (≈ 1.92 µg/mL) | MIC (Staphylococcus aureus; MRSA, methicillin-resistant Staphylococcus aureus (MRSA), abstract): 6 µM (≈ 1.92 µg/mL) | MIC (Staphylococcus aureus; MSSA / NCTC 8325, BK strain 21189, CC 8, MSSA (NCTC 8325)): 12 µM (≈ 3.85 µg/mL) | MIC (Staphylococcus aureus; MSSA, BK strain 73239, Mupirocin R): 1.5 µM (≈ 0.481 µg/mL) | MIC (Staphylococcus aureus; MSSA, BK strain 73242, Mupirocin R): 3 µM (≈ 0.961 µg/mL) | MIC (Staphylococcus aureus; MSSA, BK strain 73250, Mupirocin R): 3 µM (≈ 0.961 µg/mL) | MIC (Staphylococcus aureus; MSSA, BK strain 73267, Mupirocin R): 6 µM (≈ 1.92 µg/mL) | MIC (Staphylococcus aureus; MSSA, BK strain 73269, Mupirocin R): 6 µM (≈ 1.92 µg/mL) | MIC (Staphylococcus aureus; MSSA, BK strain 73336, Mupirocin R): 12 µM (≈ 3.85 µg/mL) | MIC (Staphylococcus aureus; MSSA, BK strain 73337, Mupirocin R): 3 µM (≈ 0.961 µg/mL) | MIC90 (Staphylococcus aureus; for 29 of 31 MRSA strains, read-out: MIC90 and MIC50): 6 µM (≈ 1.92 µg/mL) | MIC (Staphylococcus aureus; laboratory S. aureus strain 8325): 12 µM (≈ 3.85 µg/mL) | MIC (S. caprae): 6 µM (≈ 1.92 µg/mL) | MIC90 [7]: 6 µM (≈ 1.92 µg/mL) | MIC (S. sciuri; BK strain 26200): 6 µM (≈ 1.92 µg/mL) | MIC (S. sciuri; Mammaliicoccus sciuri, BK strain 26199): 6 µM (≈ 1.92 µg/mL) | MIC [8]: > 100 µM | MIC (S. haemolyticus): 12 µM (≈ 3.85 µg/mL) | MIC (S. saprophyticus; BK strain 26195): 6 µM (≈ 1.92 µg/mL) | MIC (S. saprophyticus; Staphylococcus saprophyticus, BK strain 26194): 6 µM (≈ 1.92 µg/mL) | MIC (S. lentus; BK strain 26639, Methicillin R): 6 µM (≈ 1.92 µg/mL) | MIC (S. lentus; Mammaliicoccus lentus, BK strain 26191): 6 µM (≈ 1.92 µg/mL) | MIC [9]: > 100 µM | in-life observations [10]: exhibited hunched postures; and were lethargic | MIC (S. epidermidis; BK strain 26974, Methicillin R): 6 µM (≈ 1.92 µg/mL) | MIC (S. epidermidis; Staphylococcus epidermidis, BK strain 21192, Methicillin R): 6 µM (≈ 1.92 µg/mL) | MIC [11]: > 100 µM
